What was measured:
Format in all cases: cell-based, human
[1] = tested on: MCF7 Nat (native MCF7 cells); assay: HDAC inhibitor cytotoxicity, CellTiter-Glo viability
Procedure: (§1) All inhibitors were provided by the Drug Discovery group at the Ontario Institute for Cancer Research (OICR, Toronto, Canada). Cells were seeded at 1000-1500 cells/well into 384-well plates (Greiner, Mississauga, Canada). […] After 72 h, the effects of inhibitors were determined using CellTiter-Glo Luminescent Cell Viability Assay (Promega, Madison, USA) and the Wallac EnVision 2104 Multilabel Reader (Perkin-Elmer, Woodbridge, Canada). Raw data were normalized to negative (media) and positive (20 μM staurosporine) controls and analyzed in GraphPad Prism5.

[2] = tested on: ZR75 Nat (native ZR-75-1 cells); assay: as above
Procedure: as §1

[3] = tested on: MCF7 EpiR (epirubicin-resistant MCF7 cells); assay: as above; details: for IC50: 72 h, CellTiter-Glo, in the presence of selection dose of epirubicin (30 nM)
Procedure: as §1

[4] = tested on: SKBR3 EpiR (epirubicin-resistant SKBR3 cells); assay: as above; details: for IC50: 72 h, CellTiter-Glo, in the presence of selection dose of epirubicin (15 nM)
Procedure: as §1

[5] = tested on: SKBR3 Nat (native SKBR3 cells); assay: as above
Procedure: as §1

[6] = tested on: 231 EpiR (epirubicin-resistant MDA-MB-231 cells); assay: as above; details: for IC50: 72 h, CellTiter-Glo, in the presence of selection dose of epirubicin (25 nM)
Procedure: as §1

[7] = tested on: ZR75 EpiR (epirubicin-resistant ZR-75-1 cells); assay: as above; details: 72 h, in the presence of selection dose of epirubicin (10 nM)
Procedure: as §1

[8] = tested on: 231 Nat (native MDA-MB-231 cells); assay: as above
Procedure: as §1

[9] = tested on: MCF7 epirubicin-resistant cells; assay: Cross resistance, CCK-8 viability; details: MCF7, 72 h
Procedure: (§2) Native and resistant cells were exposed to drug concentrations ranging from 0.3 nM to 3000 nM. Cell viability was determined 72 h later by CCK-8 assay. A) Percent of live cells relative to DMSO control was plotted against epirubicin concentration. Black=native cells, magenta=resistant cells. B) IC50 values in nM concentration±standard deviation. Resistance factor is shown in parenthesis and represents resistant IC50/native IC50.
(§3) Breast cancer cell lines (MDA-MB-231, MCF7, ZR-75-1, SKBR3) were purchased from ATCC and cultured in DMEM (except SKBR3, cultured in RPMI) supplemented with 10% heat-inactivated fetal bovine serum and 1% L-glutamine (Gibco, Burlington, Canada). Epirubicin-resistant cell lines were generated by exposing native cells to increasing concentrations of epirubicin with an initial concentration set at 0.5 nM. Resistance was defined when IC50 value superseded the IC50 value of the corresponding native cell line, and resistant cells could not tolerate further increase in drug concentration. Drug resistance and cross resistance were determined by exposing cells to drug concentrations ranging from 0.3-3000 nM for 72 h. Cell viability was determined by Cell Counting Kit-8 (CCK-8, Dojindo, Cedarlane, Burlington, Canada). IC50 were calculated in GraphPad Prism5.

[10] = tested on: MDA-MB-231 epirubicin-resistant cells; assay: Cross resistance, CCK-8 viability; details: MDA-MB-231, 72 h
Procedure: as §2, §3

[11] = tested on: SKBR3 epirubicin-resistant cells; assay: Cross resistance, CCK-8 viability; details: SKBR3, 72 h
Procedure: as §2, §3

[12] = tested on: ZR-75-1 epirubicin-resistant cells; assay: Cross resistance, CCK-8 viability; details: ZR-75-1, 72 h
Procedure: as §2, §3

[13] = tested on: all four epirubicin-resistant cell lines (MDA-MB-231, MCF7, SKBR3, ZR-75-1); assay: Drug resistance and cross resistance, CCK-8 viability; details: 72 h
Procedure: as §2, §3

| Compound | IC50 [3] | IC50 [4] | IC50 [6] | IC50 [7] | IC50 ([1]; Homo sapiens, MCF7, 72 h) | IC50 ([2]; Homo sapiens, ZR75, 72 h) | IC50 ([5]; Homo sapiens, SK-BR-3, 72 h) | IC50 ([8]; Homo sapiens, MDA-MB-231, 72 h) | also measured |
| --- | --- | --- | --- | --- | --- | --- | --- | --- | --- |
| CCC(=O)CCCCC[C@@H]1NC(=O)[C@H]2CCCCN2C(=O)[C@H]([C@@H](C)CC)NC(=O)[C@H](Cc2cn(OC)c3ccccc23)NC1=O | 0.11 µM | 2.21 µM | 0.11 µM | 0.25 µM | – | – | – | – | IC50 ([1]; 72 h): 0.07 µM; IC50 ([2]; 72 h): 0.21 µM; IC50 ([5]; 72 h): 0.17 µM; IC50 ([8]; 72 h): 0.23 µM |
| CN(C)Cc1c(C(=O)NCCOc2ccc(C(=O)NO)cc2)oc2ccccc12 [Abexinostat] | 0.09 µM | 2.25 µM | 0.12 µM | 0.16 µM | 0.11 µM | 0.14 µM | 0.21 µM | 0.27 µM | – |
| O=C(/C=C/c1cccc(S(=O)(=O)Nc2ccccc2)c1)NO [Belinostat] | 0.2 µM | 0.15 µM | 0.18 µM | 0.46 µM | 0.25 µM | 0.36 µM | 0.21 µM | 0.5 µM | – |
| CC(C)(C)OC(=O)Nc1ccc(-c2cc(C(=O)NCCCCCCC(=O)NO)no2)cc1 [CAY10603] | 0.38 µM | 1.03 µM | 0.82 µM | 0.75 µM | – | – | – | – | IC50 ([1]; 72 h): 0.61 µM; IC50 ([2]; 72 h): 0.98 µM; cytotoxicity for epirubicin-resistant cells compared to native cell lines ([3]; MCF7, with epirubicin): more cytotoxic; IC50 ([5]; 72 h): 0.44 µM; IC50 ([8]; 72 h): 1.27 µM |
| O=C(/C=C/c1cccc(C(=O)NO)c1)NO [CBHA] | 3.58 µM | 1.03 µM | 1.75 µM | 2.25 µM | – | – | – | – | IC50 ([1]; 72 h): 1.18 µM; IC50 ([2]; 72 h): 2.94 µM; IC50 ([5]; 72 h): 1.45 µM; IC50 ([8]; 72 h): 2.39 µM |
| O=C(/C=C/c1ccc(CN(CCO)CCc2c[nH]c3ccccc23)cc1)NO [Dacinostat] | 0.01 µM | 0.06 µM | 0.02 µM | 0.02 µM | 0.02 µM | 0.02 µM | 0.02 µM | 0.04 µM | – |
| CCN(CC)Cc1ccc2cc(COC(=O)Nc3ccc(C(=O)NO)cc3)ccc2c1 [Givinostat] | 0.08 µM | 2.74 µM | 0.16 µM | 0.18 µM | 0.1 µM | 0.17 µM | 0.22 µM | 0.26 µM | – |
| Nc1ccccc1NC(=O)c1ccc(CNc2nccc(-c3cccnc3)n2)cc1 [Mocetinostat] | 0.41 µM | 3.69 µM | 0.43 µM | 0.43 µM | 0.32 µM | 0.35 µM | 1 µM | 0.85 µM | – |
| Cc1[nH]c2ccccc2c1CCNCc1ccc(/C=C/C(=O)NO)cc1 [Panobinostat] | 0.01 µM | 0.07 µM | 0.01 µM | 0.02 µM | 0.01 µM | 0.01 µM | 0.02 µM | 0.02 µM | – |
| CCCCc1nc2cc(/C=C/C(=O)NO)ccc2n1CCN(CC)CC [Pracinostat] | 0.12 µM | 0.92 µM | 0.18 µM | 0.23 µM | 0.16 µM | 0.15 µM | 0.26 µM | 0.54 µM | cytotoxicity for epirubicin-resistant cells compared to native cell lines ([6]; MDA-MB-231, with epirubicin): more cytotoxic |
| Cn1cc(CNCC2CCN(c3ncc(C(=O)NO)cn3)CC2)c2ccccc21 [Quisinostat] | 0.01 µM | 0.22 µM | 0.01 µM | 0.01 µM | 0.01 µM | 0.01 µM | 0.01 µM | 0.01 µM | – |
| CCc1c2c(nc3ccc(O)cc13)-c1cc3c(c(=O)n1C2)COC(=O)[C@]3(O)CC [SN-38] | – | – | – | – | – | – | – | – | cross-resistance of epirubicin-resistant cells [9]: tolerated only small increases in SN-38 concentrations; cross-resistance of epirubicin-resistant cells [10]: cross-resistant; cross-resistance of epirubicin-resistant cells [11]: cross-resistant; cross-resistance of epirubicin-resistant cells [12]: tolerated only small increases in SN-38 concentrations |
| O=C(CCCCCN1C(=O)c2cccc3cccc(c23)C1=O)NO [Scriptaid] | 0.72 µM | 0.94 µM | 1.3 µM | 1.23 µM | 1.34 µM | 1.66 µM | 1.25 µM | 3.81 µM | – |
| CC(/C=C/C(=O)NO)=C\[C@@H](C)C(=O)c1ccc(N(C)C)cc1 [Trichostatin A] | 0.5 µM | 1.24 µM | 0.15 µM | 2.28 µM | – | – | – | – | IC50 ([2]; 72 h): 1.83 µM; IC50 ([5]; 72 h): 1.52 µM; IC50 ([8]; 72 h): 0.33 µM |
| N.N.O=C([O-])C1(C(=O)[O-])CCC1.[Pt+2] [carboplatin] | – | – | – | – | – | – | – | – | cross-resistance of epirubicin-resistant cell lines [13]: None of the cell lines were cross-resistant |
| CC(=O)O[C@@]12CO[C@@H]1C[C@H](O)[C@@]1(C)C(=O)[C@H](O)C3=C(C)[C@@H](OC(=O)[C@H](O)[C@@H](NC(=O)OC(C)(C)C)c4ccccc4)C[C@@](O)([C@@H](OC(=O)c4ccccc4)[C@H]21)C3(C)C [docetaxel] | – | – | – | – | – | – | – | – | cross-resistance of epirubicin-resistant cells [9]: not taxane-resistant; cross-resistance of epirubicin-resistant cells [10]: not taxane-resistant; cross-resistance of epirubicin-resistant cells [11]: cross-resistant; cross-resistance of epirubicin-resistant cells [12]: not taxane-resistant |
| COc1cccc2c1C(=O)c1c(O)c3c(c(O)c1C2=O)C[C@@](O)(C(=O)CO)C[C@@H]3O[C@H]1C[C@H](N)[C@H](O)[C@H](C)O1 [doxorubicin] | – | – | – | – | – | – | – | – | cross-resistance of epirubicin-resistant cell lines [13]: resistant |
| CC(=O)O[C@H]1C(=O)[C@@]2(C)[C@H]([C@H](OC(=O)c3ccccc3)[C@]3(O)C[C@H](OC(=O)[C@H](O)[C@@H](NC(=O)c4ccccc4)c4ccccc4)C(C)=C1C3(C)C)[C@]1(OC(C)=O)CO[C@@H]1C[C@@H]2O [paclitaxel] | – | – | – | – | – | – | – | – | cross-resistance of epirubicin-resistant cells [9]: not taxane-resistant; cross-resistance of epirubicin-resistant cells [10]: not taxane-resistant; cross-resistance of epirubicin-resistant cells [11]: cross-resistant; cross-resistance of epirubicin-resistant cells [12]: not taxane-resistant |
| Oxamflatin | 0.25 µM | 0.69 µM | 0.29 µM | 1.2 µM | – | – | – | – | IC50 ([1]; 72 h): 0.62 µM; IC50 ([2]; 72 h): 0.68 µM; cytotoxicity for epirubicin-resistant cells compared to native cell lines ([4]; SKBR3, with epirubicin): more cytotoxic; IC50 ([5]; 72 h): 1.28 µM; IC50 ([8]; 72 h): 0.59 µM |
